Test results published in US11076595B2, “1-(n,n-disubstituted carbamoyl) 4-(substituted sulfonyl)triazolin-5-one derivative, 4-(n,n-disubstituted carbamoyl) 1-(substituted sulfonyl)triazolin-5-one derivative, and herbicide containing said derivative as active ingredient” (HOKKO CHEMICAL INDUSTRY CO., LTD., priority 2017, dated 2021).

What was measured:
Type in all cases: in vivo
Echinochloa crus-galli [1] = assay: Test Example 11: herbicidal effect test by soil treatment in paddy field; conditions: 120 g/10a active ingredient, 14 days after treatment
Source text: (§1) A Wagner pot having an area of 1/10000 are was filled with paddy field soil and after adding water, a chemical fertilizer (N:P:K=17:17:17) was mixed, followed by puddling. Thereafter, 30 grains of each of Echinochloa crus-galli, broad-leaved weed (Lindernia pyxidaria, Monochoria vaginalis) and Scirpus juncoides seeds were sown to a depth of 0 to 1 cm. Immediately after the sowing, the pot was flooded, and the depth of water was kept at about 3 cm. The pot was subsequently managed in a glass greenhouse. Just after that, an emulsifiable concentrate prepared according to Formulation Example 15 by using the compound shown in Table 9 below was diluted with water, and a predetermined amount of the water-diluted formulation was added dropwise. The application rate of the active ingredient, by conversion, corresponded to 120 g per 10 are.
(§2) This test was performed with two replications per one formulation concentration plot, and 14 days after the formulation treatments, the weed suppression rate (%) was determined according to the following equation (Math. 2). Weed suppression rate (%)=(1−average dry weight (g) of plants in treated plots/average dry weight (g) of plants in untreated plots)×100 [Math. 2]

Lindernia pyxidaria [2] = assay: as above; conditions: 120 g/10a active ingredient, 14 days after treatment
Source text: as §1, §2

Monochoria vaginalis [3] = assay: as above; conditions: 120 g/10a active ingredient, 14 days after treatment
Source text: as §1, §2

Scirpus juncoides [4] = assay: as above; conditions: 120 g/10a active ingredient, 14 days after treatment
Source text: as §1, §2

Echinochloa crus-galli [5] = assay: Test Example 12: herbicidal effect test by treatment during growing period in paddy field; conditions: 120 g/10a; treatment seven days after sowing in flooded paddy pot; assessed 14 days after treatment
Procedure: as §2
as §1, with “Seven Days” for “Just”, “sowing,” for “that,”, “10” for “9”, “are. The test was performed with two replications per one formulation concentration plot, and 14 days after the formulation treatments, the weed suppression rate (%) was determined according to the equation (Math. 2).” for “are.”

Lindernia pyxidaria [6] = assay: as above; conditions: 120 g/10a; treatment seven days after sowing in flooded paddy pot; assessed 14 days after treatment
Procedure: as §2
as §1, with “Seven Days” for “Just”, “sowing,” for “that,”, “10” for “9”, “are. The test was performed with two replications per one formulation concentration plot, and 14 days after the formulation treatments, the weed suppression rate (%) was determined according to the equation (Math. 2).” for “are.”

Monochoria vaginalis [7] = assay: as above; conditions: 120 g/10a; treatment seven days after sowing in flooded paddy pot; assessed 14 days after treatment
Procedure: as §2
as §1, with “Seven Days” for “Just”, “sowing,” for “that,”, “10” for “9”, “are. The test was performed with two replications per one formulation concentration plot, and 14 days after the formulation treatments, the weed suppression rate (%) was determined according to the equation (Math. 2).” for “are.”

Scirpus juncoides [8] = assay: as above; conditions: 120 g/10a; treatment seven days after sowing in flooded paddy pot; assessed 14 days after treatment
Procedure: as §2
as §1, with “Seven Days” for “Just”, “sowing,” for “that,”, “10” for “9”, “are. The test was performed with two replications per one formulation concentration plot, and 14 days after the formulation treatments, the weed suppression rate (%) was determined according to the equation (Math. 2).” for “are.”

Row | Structure (SMILES) | Weed suppression rate (%) Echinochloa crus-galli (Echinochloa crus-galli [1]) | Weed suppression rate (%) Lindemia pyxidaria (Lindernia pyxidaria [2]) | Weed suppression rate (%) Monochoria vaginalis (Monochoria vaginalis [3]) | Weed suppression rate (%) Scirpus juncoides (Scirpus juncoides [4]) | Weed suppression rate (%) Echinochloa crus-galli (Echinochloa crus-galli [5]) | Weed suppression rate (%) Lindemia pyxidaria (Lindernia pyxidaria [6]) | Weed suppression rate (%) Monochoria vaginalis (Monochoria vaginalis [7]) | Weed suppression rate (%) Scirpus juncoides (Scirpus juncoides [8])
1 | CC(C)N(C(=O)n1cnn(S(=O)(=O)C2CCCCC2)c1=O)c1ccc(C(F)(F)F)cc1Cl [Compound 11-314] | 90% | 80% | 80% | 90% | 90% | 80% | 80% | 90%
2 | CC(C)N(C(=O)n1cnn(S(=O)(=O)C2CCCCC2)c1=O)c1ccc(C#N)cc1Cl [Compound 11-316] | 90% | 80% | 80% | 90% | 90% | 80% | 80% | 90%
3 | CCN(C(=O)n1cnn(S(=O)(=O)c2ccccc2)c1=O)C1CCCCC1 [Compound 11-353] | 90% | 80% | 80% | 90% | 90% | 80% | 80% | 90%
4 | CC(C)N(C(=O)n1cnn(S(=O)(=O)c2ccccc2)c1=O)c1ccc(Cl)cc1 [Compound 11-361] | 90% | 80% | 80% | 90% | 90% | 80% | 80% | 90%
5 | CC(C)N(C(=O)n1cnn(S(=O)(=O)c2ccccc2F)c1=O)c1ccccc1F [Compound 11-392] | 90% | 80% | 80% | 90% | 90% | 80% | 80% | 90%
6 | CC(C)N(C(=O)n1cnn(S(=O)(=O)c2ccccc2F)c1=O)c1cccc(F)c1F [Compound 11-401] | 100% | 100% | 100% | 90% | 100% | 80% | 100% | 100%
7 | CC(C)N(C(=O)n1cnn(S(=O)(=O)c2ccccc2F)c1=O)c1c(F)cccc1F [Compound 11-404] | 100% | 30% | 60% | 30% | 100% | 70% | 70% | 70%
8 | CC(C)N(C(=O)n1cnn(S(=O)(=O)c2ccccc2F)c1=O)c1ccc(Br)cc1Cl [Compound 11-413] | 80% | 90% | 80% | 80% | 60% | 70% | 70% | 70%
9 | Cc1ccc(N(C(=O)n2cnn(S(=O)(=O)c3ccccc3F)c2=O)C(C)C)c(F)c1 [Compound 11-416] | 90% | 80% | 80% | 90% | 90% | 80% | 80% | 90%
